PubChem BioAssay (NCI)
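These data come from cells grown in 96-well plates and exposed to compound for 48 hours at five concentrations. At the GI50, growth is halved. TGI marks complete inhibition of growth.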

Assays:
Experiment in all cases: DTP human tumour cell line panel, 48 h; in the data active means GI50 below about 0.43 µM; inactive means the rest
[1] = system: 786-0 renal
[2] = system: A498 renal
[3] = system: A549 NSCLC
[4] = system: ACHN renal
[5] = system: BT-549 breast
[6] = system: CAKI-1 renal
[7] = system: CCRF-CEM leukemia
[8] = system: COLO 205 colon
[9] = system: DU-145 prostate
[10] = system: EKVX NSCLC
[11] = system: HCC-2998 colon
[12] = system: HCT-116 colon
[13] = system: HCT-15 colon
[14] = system: HL-60(TB) leukemia
[15] = system: HOP-62 NSCLC
[16] = system: HOP-92 NSCLC
[17] = system: HS 578T breast
[18] = system: HT29 colon
[19] = system: IGROV1 ovarian
[20] = system: K-562 leukemia
[21] = system: KM12 colon
[22] = system: LOX IMVI melanoma
[23] = system: M14 melanoma
[24] = system: MALME-3M melanoma
[25] = system: MCF7 breast
[26] = system: MDA-MB-231 breast
[27] = system: MDA-MB-435
[28] = system: MOLT-4 leukemia
[29] = system: NCI-H226 lung
[30] = system: NCI-H23 lung
[31] = system: NCI-H460 lung
[32] = system: NCI-H522 lung
[33] = system: NCI/ADR-RES ovarian
[34] = system: OVCAR-3 ovarian
[35] = system: OVCAR-4 ovarian
[36] = system: OVCAR-5 ovarian
[37] = system: OVCAR-8 ovarian
[38] = system: PC-3 prostate
[39] = system: RPMI-8226 leukemia
[40] = system: RXF 393 renal
[41] = system: SF-268 CNS
[42] = system: SF-295 CNS
[43] = system: SF-539 CNS
[44] = system: SK-MEL-2 melanoma
[45] = system: SK-MEL-28 melanoma
[46] = system: SK-MEL-5 melanoma
[47] = system: SK-OV-3 ovarian
[48] = system: SN12C renal
[49] = system: SNB-19 CNS
[50] = system: SNB-75 CNS
[51] = system: SR leukemia
[52] = system: SW-620 colon
[53] = system: T-47D breast
[54] = system: TK-10 renal
[55] = system: U251 CNS
[56] = system: UACC-257 melanoma
[57] = system: UACC-62 melanoma
[58] = system: UO-31 renal

CN[C@@H](C)C(=O)N[C@H]1CCS[C@H]2CC(C)(C)[C@@H](C(=O)N[C@H]3c4ccccc4C[C@H]3OCC#CC#CCO[C@@H]3Cc4ccccc4[C@@H]3NC(=O)[C@H]3N4C(=O)[C@@H](NC(=O)[C@H](C)NC)CCS[C@H]4CC3(C)C)N2C1=O
0.115 µM: TGI [24]
0.203 µM: TGI [35]
14.3 µM: TGI [16]
21.4 µM: TGI [50]
0.0239 µM: TGI [26]
> 36 µM: TGI [39]
5.24 µM: TGI [40]
32 µM: TGI [32]
> 50 µM: TGI [1] | TGI [2] | TGI [3] | TGI [4] | TGI [6] | TGI [8] | TGI [9] | TGI [10] | TGI [11] | TGI [12] | TGI [13] | TGI [15] | TGI [17] | TGI [18] | TGI [19] | TGI [21] | TGI [22] | TGI [23] | TGI [27] | TGI [29] | TGI [30] | TGI [31] | TGI [33] | TGI [36] | TGI [37] | TGI [38] | TGI [41] | TGI [42] | TGI [45] | TGI [48] | TGI [49] | TGI [52] | TGI [53] | TGI [54] | TGI [55] | TGI [56] | TGI [57] | TGI [58]
< 0.005 µM: TGI [47]
12.3 µM: TGI [7]
13.9 µM: TGI [44]
> 33.4 µM: TGI [20]
22.4 µM: TGI [28]
active: GI50 [5] 0.00762 µM | GI50 [7] 0.0966 µM | GI50 [14] 0.0759 µM | GI50 [24] 0.00951 µM | GI50 [26] < 0.005 µM | GI50 [35] 0.0146 µM | GI50 [40] 0.423 µM | GI50 [43] 0.0118 µM | GI50 [44] 0.174 µM | GI50 [47] < 0.005 µM | GI50 [51] 0.0264 µM
6.38 µM: TGI [5]
2.4 µM: TGI [43]
17.8 µM: TGI [25]
> 43.9 µM: TGI [34]
inactive: GI50 [1] > 50 µM | GI50 [2] > 50 µM | GI50 [3] > 50 µM | GI50 [4] > 50 µM | GI50 [6] > 50 µM | GI50 [8] 25.2 µM | GI50 [9] 20.6 µM | GI50 [10] > 38.9 µM | GI50 [11] 19.5 µM | GI50 [12] > 28.8 µM | GI50 [13] > 50 µM | GI50 [15] 3.72 µM | GI50 [16] 2.99 µM | GI50 [17] 15.5 µM | GI50 [18] 20.2 µM | GI50 [19] 32.1 µM | GI50 [20] 12.9 µM | GI50 [21] 30.5 µM | GI50 [22] 13.8 µM | GI50 [23] > 50 µM | GI50 [25] 5.87 µM | GI50 [27] > 23 µM | GI50 [28] 9.86 µM | GI50 [29] > 50 µM | GI50 [30] > 32 µM | GI50 [31] 24.6 µM | GI50 [32] 7.38 µM | GI50 [33] > 50 µM | GI50 [34] 12 µM | GI50 [36] > 50 µM | GI50 [37] 35.9 µM | GI50 [38] > 28.4 µM | GI50 [39] 2.25 µM | GI50 [41] 41.9 µM | GI50 [42] > 50 µM | GI50 [45] > 46.6 µM | GI50 [46] 4.75 µM | GI50 [48] > 46.9 µM | GI50 [49] > 50 µM | GI50 [50] 1.99 µM | GI50 [52] > 50 µM | GI50 [53] 29.9 µM | GI50 [54] > 50 µM | GI50 [55] > 50 µM | GI50 [56] > 50 µM | GI50 [57] > 50 µM | GI50 [58] > 50 µM
2.33 µM: TGI [14]
> 16.8 µM: TGI [46]
> 22.1 µM: TGI [51]
